This note sets out measurements from ChEMBL document CHEMBL1201862, “PubChem BioAssay data set” (2004).

A short description of series [1]: Luminescence Cell-Based Dose Confirmation HTS to Identify Activators of 5'UTR Stem-Loop Driven Alpha-Synuclein mRNA Translation in H4 Neuroglioblastoma Cells. [Related pubchem assays: 1829 (Project Summary), 1814 (Primary HTS)]. It is filed as functional.
The next series relates to H4. Kind of series: Luminescence Cell-Based Dose Response HTS to Identify Activators of 5'UTR Stem-Loop Driven Prion Protein mRNA Translation in H4 Neuroglioblastoma Cells. [Related pubchem assays: 1829 (Project Summary), 1814 (Primary HTS)]. It is filed as functional. As to conditions: Homo sapiens.
In series [2] the target is Dual specificity tyrosine-phosphorylation-regulated kinase 1A (Rattus norvegicus, UniProt Q63470). Format: biochemical, Homo sapiens.
The nature of series [3]: Luminescence Cell-Based Dose Response HTS to Identify Activators of Luciferase Translation or Activity in H4 […] Cells. [Related pubchem assays: 1829 (Project Summary), 1814 (Primary HTS)]. It is filed as functional.
The target of series [4] is FAD-linked sulfhydryl oxidase ALR (Homo sapiens, UniProt P55789). In words: ALR-catalysed DTT oxidation blockers – biochemical, H2O2 detection, luminescence, cherry-pick, dose response (AID 493248).
FAD-linked sulfhydryl oxidase ALR, sequence (P55789 whole entry): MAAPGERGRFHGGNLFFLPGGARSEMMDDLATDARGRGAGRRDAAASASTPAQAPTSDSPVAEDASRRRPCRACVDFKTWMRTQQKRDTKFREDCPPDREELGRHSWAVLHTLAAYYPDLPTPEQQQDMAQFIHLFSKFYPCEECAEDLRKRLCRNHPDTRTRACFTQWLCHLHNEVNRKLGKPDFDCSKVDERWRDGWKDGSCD
The target in the next series is Fatty acid synthase (Homo sapiens, UniProt P49327). Kind of series: inhibition of human FAS-TE enzyme activity – biochemical, kinetic fluorescence intensity, dose response (AID 624326).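 Note: rate of fluorescence rise from hydrolysis of a fluorogenic O-methyl fluorescein ester substrate.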 Format: functional.
Series [5] deals with T1, Mannose-6-phosphate isomerase (Homo sapiens, UniProt P34949).
T1 sequence (P34949 whole entry): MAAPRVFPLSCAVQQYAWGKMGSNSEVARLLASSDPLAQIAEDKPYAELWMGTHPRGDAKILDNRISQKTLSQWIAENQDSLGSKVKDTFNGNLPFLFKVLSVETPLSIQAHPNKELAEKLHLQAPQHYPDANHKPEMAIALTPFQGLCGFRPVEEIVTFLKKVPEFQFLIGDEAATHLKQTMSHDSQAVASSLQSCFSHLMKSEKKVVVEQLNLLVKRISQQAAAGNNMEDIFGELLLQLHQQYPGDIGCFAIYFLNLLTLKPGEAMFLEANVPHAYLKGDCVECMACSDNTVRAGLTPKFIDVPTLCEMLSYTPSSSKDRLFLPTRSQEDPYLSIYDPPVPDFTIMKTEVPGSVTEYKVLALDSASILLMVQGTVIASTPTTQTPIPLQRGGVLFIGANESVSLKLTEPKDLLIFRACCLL
Kind of series: MPI inhibition at elevated mannose 6-phosphate – biochemical, fluorescence intensity, high mannose 6-phosphate, primary screen (AID 1220).

Series [6] deals with Glucose-6-phosphate 1-dehydrogenase (Homo sapiens, UniProt P11413). In words: inhibition of Homo sapiens G6PD, dose series – biochemical, fluorescence, selectivity assay for P. falciparum G6PD inhibitor project, dose response (AID 504792). Format: functional.
Glucose-6-phosphate 1-dehydrogenase, sequence (P11413 whole entry): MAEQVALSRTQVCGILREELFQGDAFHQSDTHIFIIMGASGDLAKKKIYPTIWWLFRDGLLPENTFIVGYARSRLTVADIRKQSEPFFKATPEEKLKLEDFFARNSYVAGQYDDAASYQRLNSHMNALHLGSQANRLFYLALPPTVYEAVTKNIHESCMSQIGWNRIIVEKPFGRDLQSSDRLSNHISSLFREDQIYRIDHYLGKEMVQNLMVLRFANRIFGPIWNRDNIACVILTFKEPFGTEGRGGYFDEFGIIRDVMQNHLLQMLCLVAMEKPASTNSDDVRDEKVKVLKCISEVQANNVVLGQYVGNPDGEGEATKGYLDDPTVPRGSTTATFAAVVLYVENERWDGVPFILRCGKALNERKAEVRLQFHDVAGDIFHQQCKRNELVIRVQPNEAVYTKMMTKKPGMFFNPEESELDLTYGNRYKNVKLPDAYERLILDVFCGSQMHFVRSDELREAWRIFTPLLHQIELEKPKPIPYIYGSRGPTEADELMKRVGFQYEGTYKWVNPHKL
A further series has as its system Vero. Kind of series: cells. It is filed as functional. To be noted: Chlorocebus sabaeus.
In the next series the target is Genome polyprotein (dengue virus type 2, UniProt P29990). In words: flavivirus cap methylation enzyme inhibition – biochemical, confirmation dose response, primary screen (AID 588689). Format: functional.
Genome polyprotein, sequence (P29990 2492-3391 limits assumed): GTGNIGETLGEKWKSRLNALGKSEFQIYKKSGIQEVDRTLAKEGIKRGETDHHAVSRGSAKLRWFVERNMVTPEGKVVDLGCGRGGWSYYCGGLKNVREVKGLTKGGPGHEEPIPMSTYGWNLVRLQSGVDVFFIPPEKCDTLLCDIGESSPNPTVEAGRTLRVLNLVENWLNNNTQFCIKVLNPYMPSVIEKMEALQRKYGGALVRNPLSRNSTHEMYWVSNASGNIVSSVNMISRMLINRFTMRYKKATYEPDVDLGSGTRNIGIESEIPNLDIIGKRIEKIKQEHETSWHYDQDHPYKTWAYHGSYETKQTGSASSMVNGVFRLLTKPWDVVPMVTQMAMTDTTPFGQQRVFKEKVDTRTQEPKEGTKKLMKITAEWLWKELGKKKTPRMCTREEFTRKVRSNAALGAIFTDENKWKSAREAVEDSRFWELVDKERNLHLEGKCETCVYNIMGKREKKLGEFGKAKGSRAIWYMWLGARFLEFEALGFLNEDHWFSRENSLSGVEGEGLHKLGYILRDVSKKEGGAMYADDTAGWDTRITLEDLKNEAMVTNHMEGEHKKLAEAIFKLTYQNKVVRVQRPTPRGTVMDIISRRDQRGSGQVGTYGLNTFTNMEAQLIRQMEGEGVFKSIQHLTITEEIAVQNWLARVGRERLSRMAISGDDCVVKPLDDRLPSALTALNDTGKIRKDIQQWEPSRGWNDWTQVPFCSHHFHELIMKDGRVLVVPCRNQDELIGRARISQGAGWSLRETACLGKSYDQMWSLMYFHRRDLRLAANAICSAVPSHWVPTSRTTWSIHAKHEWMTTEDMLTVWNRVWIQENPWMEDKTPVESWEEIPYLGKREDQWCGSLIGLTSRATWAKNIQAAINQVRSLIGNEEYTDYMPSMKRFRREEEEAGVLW
Series [7] can be described thus: toxicity toward HepG2 liver cells – cell-based, plate reader, cherry-pick, antagonist series, cytotoxicity control, dose response (AID 743416). It is filed as functional.
A short description of series [8]: blockade of melanocortin 4 receptor signaling – cell-based, plate reader, cherry pick, counter-screen for LGR2 antagonist project, dose response (AID 743444).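 Note: transfected HEK 293 cells stimulated with alpha-MSH peptide; potency of inhibitors of the alpha-MSH evoked signal.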 It is filed as functional. A general note: A counterscreen serves to expose hits that act by an unwanted route or on another target.
Series [9] in a line: blockers of bursicon-stimulated LGR2 cAMP reporter – cell-based, HEK293, CRE-luciferase reporter, cherry pick, set 2, dose response (AID 743343).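 Note: transfected cells were stimulated with diluted bursicon conditioned medium after compound addition.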 Format: functional. On the technique in general: A reporter such as luciferase makes a cellular process visible.
A short description of series [10]: A549 cell cytotoxicity, dose response, cytotoxicity control, plate reader, cherry-pick, antagonist series (AID 743412). Format: functional, cell-based.
In the next series the target is Cytochrome P450 3A4 (Homo sapiens, UniProt P08684).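 Note: CYP3A4 tested as one member of a cytochrome P450 panel screen.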
Cytochrome P450 3A4, sequence (P08684 whole entry): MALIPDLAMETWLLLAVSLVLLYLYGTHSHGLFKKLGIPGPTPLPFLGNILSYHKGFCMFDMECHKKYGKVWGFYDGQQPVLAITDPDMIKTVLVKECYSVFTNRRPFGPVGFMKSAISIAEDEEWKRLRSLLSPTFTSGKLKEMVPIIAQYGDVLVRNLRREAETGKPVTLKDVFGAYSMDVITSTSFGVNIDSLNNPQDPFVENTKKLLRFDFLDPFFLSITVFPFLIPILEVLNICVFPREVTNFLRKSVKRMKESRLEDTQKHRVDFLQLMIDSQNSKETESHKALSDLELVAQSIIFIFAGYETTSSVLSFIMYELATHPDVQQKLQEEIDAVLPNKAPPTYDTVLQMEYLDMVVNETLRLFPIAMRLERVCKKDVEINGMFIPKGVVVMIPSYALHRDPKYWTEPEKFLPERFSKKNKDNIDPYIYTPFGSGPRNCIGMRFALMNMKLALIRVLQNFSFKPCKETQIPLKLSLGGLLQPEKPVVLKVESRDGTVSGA
The target in another series is Cytochrome P450 2C19 (Homo sapiens, UniProt P33261). In words: Cytochrome panel assay with activity outcomes. Panel member name: p450-cyp2c19 Compounds with AC50 equal or less than 10 uM are considered active. It is filed as functional. To be noted: read-out: AC50.
Cytochrome P450 2C19, sequence (P33261 whole entry): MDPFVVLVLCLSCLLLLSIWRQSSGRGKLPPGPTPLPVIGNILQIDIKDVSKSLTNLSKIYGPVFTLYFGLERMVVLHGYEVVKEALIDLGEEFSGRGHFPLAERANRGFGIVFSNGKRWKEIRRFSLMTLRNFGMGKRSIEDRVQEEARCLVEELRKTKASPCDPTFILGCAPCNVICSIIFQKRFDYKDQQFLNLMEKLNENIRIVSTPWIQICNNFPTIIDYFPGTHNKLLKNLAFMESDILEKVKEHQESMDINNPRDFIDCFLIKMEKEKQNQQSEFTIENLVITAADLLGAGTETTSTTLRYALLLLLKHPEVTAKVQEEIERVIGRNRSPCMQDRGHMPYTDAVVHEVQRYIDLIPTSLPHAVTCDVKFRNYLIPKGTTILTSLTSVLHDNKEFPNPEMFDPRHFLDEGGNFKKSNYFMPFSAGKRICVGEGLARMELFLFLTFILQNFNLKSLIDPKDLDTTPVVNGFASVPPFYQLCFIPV
The next series concerns the target Cytochrome P450 2C9 (Homo sapiens, UniProt P11712).
Another series deals with Cytochrome P450 2D6 (Homo sapiens, UniProt P10635).
In another series the target is T2, Cytochrome P450 1A2 (Homo sapiens, UniProt P05177).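 Note: PubChem cytochrome P450 panel assay, CYP1A2 panel member.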
T2 sequence (P05177 whole entry): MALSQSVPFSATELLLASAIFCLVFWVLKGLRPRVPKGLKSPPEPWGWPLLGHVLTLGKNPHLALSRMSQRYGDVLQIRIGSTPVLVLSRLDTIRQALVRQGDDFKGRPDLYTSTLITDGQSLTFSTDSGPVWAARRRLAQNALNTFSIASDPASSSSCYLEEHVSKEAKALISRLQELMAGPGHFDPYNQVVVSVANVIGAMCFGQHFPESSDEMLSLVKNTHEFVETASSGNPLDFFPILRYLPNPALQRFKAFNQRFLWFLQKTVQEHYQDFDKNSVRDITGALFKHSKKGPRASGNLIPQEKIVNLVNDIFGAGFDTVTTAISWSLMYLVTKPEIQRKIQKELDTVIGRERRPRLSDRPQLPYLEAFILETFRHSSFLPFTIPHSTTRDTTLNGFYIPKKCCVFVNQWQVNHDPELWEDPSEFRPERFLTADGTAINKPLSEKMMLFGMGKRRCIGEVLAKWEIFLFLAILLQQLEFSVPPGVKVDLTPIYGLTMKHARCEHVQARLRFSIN

The next series addresses T3, Streptokinase A (Streptococcus pyogenes serotype M1, UniProt P10520).
T3 sequence (P10520 whole entry): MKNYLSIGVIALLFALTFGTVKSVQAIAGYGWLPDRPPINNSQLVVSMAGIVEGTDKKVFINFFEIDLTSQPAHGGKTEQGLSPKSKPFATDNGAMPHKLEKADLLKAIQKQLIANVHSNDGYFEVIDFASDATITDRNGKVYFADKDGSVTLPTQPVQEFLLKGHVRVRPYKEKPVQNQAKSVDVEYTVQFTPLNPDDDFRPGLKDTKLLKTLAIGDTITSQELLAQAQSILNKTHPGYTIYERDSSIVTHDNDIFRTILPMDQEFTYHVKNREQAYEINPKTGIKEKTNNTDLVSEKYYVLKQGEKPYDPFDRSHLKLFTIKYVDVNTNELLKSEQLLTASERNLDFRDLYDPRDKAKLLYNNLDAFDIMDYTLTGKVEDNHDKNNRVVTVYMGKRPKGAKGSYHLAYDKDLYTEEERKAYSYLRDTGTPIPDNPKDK
In words: viability-normalized secreted streptokinase activity reduction – plasminogen activation absorbance, OD405, dose response (AID 1914).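 Note: secreted streptokinase activity via plasminogen activation per viability signal from cell pellet.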 It is filed as functional, Streptococcus pyogenes M1 GAS.

A further series deals with Albumin (Bos taurus, UniProt P02769). Kind of series: Counterscreen for inhibitors of T-cell receptor (TCR)-CD3 interaction: Fluorescence-based biochemical high throughput dose response assay to identify inhibitors of T-cell receptor (TCR)-CD3 interaction using a TAMRA-labeled BSA probe. It is filed as functional.
Albumin, sequence (P02769 whole entry): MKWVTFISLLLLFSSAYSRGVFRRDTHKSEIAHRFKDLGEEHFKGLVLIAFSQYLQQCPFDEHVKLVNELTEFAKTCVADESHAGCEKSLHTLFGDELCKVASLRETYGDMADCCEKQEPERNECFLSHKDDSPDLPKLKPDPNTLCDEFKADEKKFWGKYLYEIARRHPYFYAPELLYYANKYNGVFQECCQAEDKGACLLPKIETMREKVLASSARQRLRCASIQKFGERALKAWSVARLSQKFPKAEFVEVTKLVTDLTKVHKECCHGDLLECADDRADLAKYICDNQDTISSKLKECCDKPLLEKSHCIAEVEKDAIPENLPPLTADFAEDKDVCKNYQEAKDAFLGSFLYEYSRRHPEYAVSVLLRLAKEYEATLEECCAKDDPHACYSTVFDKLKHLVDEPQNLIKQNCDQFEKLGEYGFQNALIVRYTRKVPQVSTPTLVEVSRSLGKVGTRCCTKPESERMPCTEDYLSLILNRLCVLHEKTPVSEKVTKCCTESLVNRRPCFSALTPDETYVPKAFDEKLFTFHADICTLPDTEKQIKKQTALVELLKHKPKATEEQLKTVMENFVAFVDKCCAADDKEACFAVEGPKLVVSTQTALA
Series [11] concerns Streptococcus sp. 'group A'. Kind of series: Streptococcus pyogenes SK(-)GAS viability under kanamycin – luminescence, BacTiterGlo, confirmation, counter-screen for streptokinase expression inhibitor project, dose response (AID 1900). It is filed as functional, organism-based.
Another series has as its system Streptococcus. In words: GAS UMAA2166 growth inhibition – luminescence, BacTiterGlo, counter-screen for streptokinase expression inhibitor project, dose response (AID 1915).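 Note: potency for reduction of bacterial viability or growth.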 Format: functional, organism-based.
Series [12] in a line: Luminescence Cell-Based Dose Confirmation HTS to Identify Inhibitors of Platelet Dense Granule Release. [Related pubchem assays: 1663 (Primary HTS), 1678 (Summary of Project)]. Format: functional.
Series [13] addresses Luciferin 4-monooxygenase (Photinus pyralis, UniProt P08659). In words: inhibition of purified Photinus pyralis luciferase – biochemical, luminescence, dose response (AID 1891).
The target in series [14] is Disintegrin and metalloproteinase domain-containing protein 17 (Homo sapiens, UniProt P78536). Kind of series: exosite inhibitors of ADAM17, dose response, biochemical (AID 743260).
Disintegrin and metalloproteinase domain-containing protein 17, sequence (P78536 whole entry, the tested form may be a part): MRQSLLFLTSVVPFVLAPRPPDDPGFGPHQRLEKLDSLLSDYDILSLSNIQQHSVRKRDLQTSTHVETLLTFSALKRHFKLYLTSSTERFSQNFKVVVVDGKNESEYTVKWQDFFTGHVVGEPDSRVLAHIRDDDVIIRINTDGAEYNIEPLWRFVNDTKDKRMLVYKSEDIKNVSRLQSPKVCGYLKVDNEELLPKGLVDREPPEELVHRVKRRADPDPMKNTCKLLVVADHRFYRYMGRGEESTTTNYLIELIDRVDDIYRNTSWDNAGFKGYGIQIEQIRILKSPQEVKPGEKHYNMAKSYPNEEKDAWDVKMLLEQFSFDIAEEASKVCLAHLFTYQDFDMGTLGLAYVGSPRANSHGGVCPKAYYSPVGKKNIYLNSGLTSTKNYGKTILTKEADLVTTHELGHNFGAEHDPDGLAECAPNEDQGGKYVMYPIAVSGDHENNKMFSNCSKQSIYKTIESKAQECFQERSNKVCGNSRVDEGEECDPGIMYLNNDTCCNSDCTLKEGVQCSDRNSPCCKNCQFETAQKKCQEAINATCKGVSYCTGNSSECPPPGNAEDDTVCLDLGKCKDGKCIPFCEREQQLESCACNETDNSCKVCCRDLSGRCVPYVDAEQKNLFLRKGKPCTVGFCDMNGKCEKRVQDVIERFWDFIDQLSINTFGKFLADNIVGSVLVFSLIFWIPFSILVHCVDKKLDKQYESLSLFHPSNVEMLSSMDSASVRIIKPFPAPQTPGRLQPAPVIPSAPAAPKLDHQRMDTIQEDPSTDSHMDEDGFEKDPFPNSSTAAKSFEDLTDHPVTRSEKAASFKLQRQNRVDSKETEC
A short description of series [15]: microbe, parasite or virus in culture. To be noted: Mycobacterium tuberculosis. Format: functional.

SMILES strings stand for the structures. Active and inactive are the calls of the source. Where only a bound is given, the exact number is not on record here.

Cytochrome P450 2C9, sequence (P11712 whole entry): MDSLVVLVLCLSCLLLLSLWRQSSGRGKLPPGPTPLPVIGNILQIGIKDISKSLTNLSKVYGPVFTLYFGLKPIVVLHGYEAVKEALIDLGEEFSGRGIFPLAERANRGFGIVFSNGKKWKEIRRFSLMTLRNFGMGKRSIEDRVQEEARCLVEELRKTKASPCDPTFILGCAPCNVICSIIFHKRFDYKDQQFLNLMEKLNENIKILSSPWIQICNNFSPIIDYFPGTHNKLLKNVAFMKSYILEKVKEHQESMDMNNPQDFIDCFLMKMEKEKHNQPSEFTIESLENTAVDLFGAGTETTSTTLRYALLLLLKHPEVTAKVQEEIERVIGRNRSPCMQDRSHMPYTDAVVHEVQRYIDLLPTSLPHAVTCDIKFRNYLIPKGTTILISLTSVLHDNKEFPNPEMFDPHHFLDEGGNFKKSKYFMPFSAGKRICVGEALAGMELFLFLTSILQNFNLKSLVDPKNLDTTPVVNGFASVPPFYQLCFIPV

On to `Fc1cccc(/C=N/Nc2[nH]cnc3ncnc2-3)c1`, for which the results for the EC50 (in [1]; with H4; in series [3]) were > 120 µM (not active), > 120 µM (not active) and 40.8 µM (active), respectively. Moreover, the AC50 (commonly the concentration giving half of the maximal activity seen) in series [2] was 10.1 µM (active).

Take `O=S(=O)(c1ccc(-c2csc(-c3cccnc3)n2)cc1)N1CCCC1`: the AC50 in series [4] was 0.268 µM (active). Further, on Fatty acid synthase, the IC50 (as a rule, the concentration that gives 50% inhibition) is 1.62 µM (active).

As to `CCN(CC)c1ccc(NC(=O)c2ccccc2Br)cc1S(=O)(=O)Nc1ccccc1OC`, the IC50 in [5] is 43.7 µM (active); in series [6] it was > 80 µM (inactive).

For `O=C1N(c2ccccc2C(F)(F)F)O[C@@]1(c1ccccc1)C1CCCCC1`, the CC50 in the series with Vero was > 25 µM (active).

As for `CN1CC[C@@]2(C)c3cc(O)ccc3N(C)[C@@H]12`, the IC50 on Genome polyprotein was 22.4 µM (active); in series [6], 42.6 µM (inactive).

In the case of `COc1ccc2nc(NC(=O)c3ccccc3F)sc2c1`, the AC50 in [7] was > 52 µM (inactive); in series [8], 27.2 µM (active); in [9], 19.9 µM (active); in series [10] it was > 52 µM (inactive).

Take `CCCCCCCCCCC/C=C\C(C)(C)/C=C\CCCC(=O)O`: the AC50 result at Cytochrome P450 3A4 is “inconclusive”; on Cytochrome P450 2C19, 25.1 µM (inconclusive); on Cytochrome P450 2C9, 15.8 µM (inconclusive).

For the compound `O=C(c1cnccn1)N1CCC2(CC1)CCN(c1ccccc1)CC2`, at Cytochrome P450 3A4, the AC50 entry is on record as “inconclusive”.

Take `CCCCn1c(SCC(=O)NC(C)(C)C)nnc1-c1ccco1`: the AC50 result at Cytochrome P450 3A4 is “inconclusive”; on Cytochrome P450 2D6, 12.6 µM (inconclusive); at Cytochrome P450 1A2, 0.316 µM (inconclusive); at Cytochrome P450 2C9, 0.0398 µM (inconclusive).

`COc1ccc(CC(=O)N/N=C/c2cc([N+](=O)[O-])cc(Br)c2O)cc1`: the EC50 (in general, the midpoint of the concentration-response curve) is > 150 µM (not active) at Streptokinase A, 3.53 µM (active) in series [11] and 6.89 µM (active) in the series on Streptococcus. Moreover, the IC50 on Albumin was > 94.1 µM (inactive).

On to `O=C(CCl)NNC(=O)c1c(O)c2ccccc2[nH]c1=O`, for which, at Albumin, the IC50 was > 94 µM (inactive).

Turning to `NNC(=O)CN1C(c2ccccc2Br)=Nc2ccc(Br)cc2C1c1ccccc1` (stereo not drawn), the IC50 in series [6] is 15.3 µM (active).

As to `O=C(c1ccccc1)c1ccc2cc(O)ccc2c1`, the AC50 in [2] was 9.25 µM (active). The results for the EC50 in series [12] and in [13] were 7.74 µM (active) and 0.752 µM (active), respectively.

Take `CC1(OC(=O)C2CCCC2)C(=O)C=C2C=C(c3ccsc3)N(CCc3c[nH]c4ccccc34)C=C2C1=O` (stereo not drawn): the IC50 in [6] is 49.6 µM (inactive).

Turning to `Cc1noc(C)c1COc1ccc(C(=O)NNC(=O)c2ccccc2O)cc1`, at Albumin, the IC50 is > 94.1 µM (inactive).

Turning to `Cc1no[n+]([O-])c1COc1cccc(/C=N/Nc2nncn2N)c1`, the IC50 in series [6] was 58.7 µM (inactive).

Regarding `CN1CCN(c2ncc3nc(-c4ccc(F)cc4)c(=O)n(Cc4cccs4)c3n2)CC1`, the AC50 result on Cytochrome P450 3A4 was “inconclusive”; at Cytochrome P450 1A2 it was 25.1 µM (inconclusive); at Cytochrome P450 2C19, 31.6 µM (inconclusive); at Cytochrome P450 2C9, 0.0126 µM (inconclusive).

On to `C/C(=N\N=C(/N)SC1CC(=O)N(c2ccc(Br)cc2)C1=O)c1cccs1` (stereo not drawn), for which the EC50 is 9.08 µM (active) on Streptokinase A, 6.72 µM (active) in [11] and 19.1 µM (active) in the series on Streptococcus. Besides, the IC50 in series [14] is > 69.5 µM (inactive).

For the compound `COc1cccc(NC(=O)Nc2nc(SC(C)(C)C)ns2)c1`, the EC50 on Streptokinase A was 9.69 µM (active); in [11], 9.49 µM (active); with Streptococcus, > 50 µM (not active). In addition, the CC50 with Vero is 7.41 µM (active); in series [15], 7.82 µM (active).
